According to the NIST ThermoML archive (doi:10.1016/j.jct.2015.04.003):
Numbers after ± are expanded uncertainties.

Assay: Boiling temperature at pressure P
Conditions: 101.33 kPa; Liquid; Ebulliometric method (Recirculating still)

Compound: COc1ccccc1O [2-methoxyphenol]
- Boiling temperature at pressure P: 205.10 ± 0.05 °C

Compound: COc1ccccc1 [anisole]
- Boiling temperature at pressure P: 153.54 ± 0.05 °C

Compound: CCCCOC(C)=O [butyl ethanoate]
- Boiling temperature at pressure P: 125.92 ± 0.05 °C
